Measurements: publication PMC12118671, “Increased imaging ligand hydrophilicity and improved pharmacokinetic properties provides enhanced in vivo targeting of fibroblast activation protein” (npj Imaging, 2024)
“And” between values parts separate entries of the source, which are not always exact repeats. Identical values can stand only once.

Columns and labels:
FAP [1] = system: FAP; design: method as in PMID 29626119; details: read-out: EC50 through competition assays; cited from earlier work
FAP [2] = target: T1, FAP (Mus musculus, UniProt P97321); assay: In vivo near-infrared imaging of paws with competitive blocking, CIA model
T1 construct: Increased FAP expression with increasing disease severity in CIA mice as assessed with IHC; from tissue; host or cells: inflamed paws of live DBA/1J mice with collagen-induced arthritis
T1 sequence (P97321 1-761): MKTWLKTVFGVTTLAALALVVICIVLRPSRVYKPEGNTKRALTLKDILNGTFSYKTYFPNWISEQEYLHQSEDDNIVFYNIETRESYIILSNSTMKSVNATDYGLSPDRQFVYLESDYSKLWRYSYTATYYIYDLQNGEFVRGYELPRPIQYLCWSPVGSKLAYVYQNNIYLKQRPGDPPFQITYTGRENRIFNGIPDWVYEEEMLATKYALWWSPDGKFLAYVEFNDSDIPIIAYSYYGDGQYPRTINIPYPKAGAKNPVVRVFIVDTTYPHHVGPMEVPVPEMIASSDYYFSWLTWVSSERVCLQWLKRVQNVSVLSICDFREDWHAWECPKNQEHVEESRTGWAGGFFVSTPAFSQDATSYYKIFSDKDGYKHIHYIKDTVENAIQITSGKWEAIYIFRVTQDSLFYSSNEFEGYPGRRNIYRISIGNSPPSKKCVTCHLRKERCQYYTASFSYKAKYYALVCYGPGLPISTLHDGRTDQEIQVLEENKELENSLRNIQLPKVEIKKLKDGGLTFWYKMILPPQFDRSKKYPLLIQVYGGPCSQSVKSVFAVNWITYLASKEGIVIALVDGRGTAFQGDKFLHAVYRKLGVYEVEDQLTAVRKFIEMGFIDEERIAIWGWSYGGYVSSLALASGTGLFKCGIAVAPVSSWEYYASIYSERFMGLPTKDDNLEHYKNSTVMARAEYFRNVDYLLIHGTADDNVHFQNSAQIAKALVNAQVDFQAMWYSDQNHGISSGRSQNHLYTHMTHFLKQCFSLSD

[3] = Plasma pharmacokinetics after IV bolus, non-compartmental analysis; assay type: in vivo, mouse; details: for AUC(0-inf) / C0 / clearance / half-life / Vd: mouse, plasma, healthy male DBA1/J mice, Mean ± SEM; for AUC(0-inf) / C0: IV bolus 2 nmol (FAPI dosed 51 nmol, dose normalized to 2 nmol); for clearance / half-life / Vd: IV bolus; for half-life: read-out: Terminal t1/2 (converted); for Vd: read-out: VD,ss; for clearance category (Fig. 1): words in Fig. 1
Procedure: FAPI was dosed IV (51 nmol) via the tail vein to maintain concentrations above LLOQ for PK analysis while all other FAPI conjugates were dosed IV (1 or 2 nmol in 150 µL PBS) via the tail vein. […] Whole blood was diluted with 10 mM EDTA in PBS and spun down to isolate plasma. Fluorescent ligand concentrations were quantified using a LI-COR Odyssey CLx scanner (Lincoln, NE) using a dilution series of fluorescent standards as previously reported. Non-compartmental analysis was conducted using the concentration vs. time profiles for each probe with MATLAB. The predicted initial concentration, terminal phase half-life, exposure (AUC0-inf), AUC extrapolation percentage, volume of distribution at steady state, and terminal clearance were reported for each dosed probe.

[4] = target: T2, cell surface FAP (HEK293-hFAP cells) (Homo sapiens, UniProt Q12884); assay: Competition assay against FAPI-ALB-AF647 for indirect KD; assay type: binding; details: competition with FAPI-ALB-AF647, 60 nM each, 30 min on ice, read-out: KD (nM), indirectly calculated
T2 construct: expressed in transfected cells; host or cells: HEK293 (ATCC, CRL-1573), Lipofectamine 3000 transfection, puromycin selection
T2 sequence (Q12884 1-760): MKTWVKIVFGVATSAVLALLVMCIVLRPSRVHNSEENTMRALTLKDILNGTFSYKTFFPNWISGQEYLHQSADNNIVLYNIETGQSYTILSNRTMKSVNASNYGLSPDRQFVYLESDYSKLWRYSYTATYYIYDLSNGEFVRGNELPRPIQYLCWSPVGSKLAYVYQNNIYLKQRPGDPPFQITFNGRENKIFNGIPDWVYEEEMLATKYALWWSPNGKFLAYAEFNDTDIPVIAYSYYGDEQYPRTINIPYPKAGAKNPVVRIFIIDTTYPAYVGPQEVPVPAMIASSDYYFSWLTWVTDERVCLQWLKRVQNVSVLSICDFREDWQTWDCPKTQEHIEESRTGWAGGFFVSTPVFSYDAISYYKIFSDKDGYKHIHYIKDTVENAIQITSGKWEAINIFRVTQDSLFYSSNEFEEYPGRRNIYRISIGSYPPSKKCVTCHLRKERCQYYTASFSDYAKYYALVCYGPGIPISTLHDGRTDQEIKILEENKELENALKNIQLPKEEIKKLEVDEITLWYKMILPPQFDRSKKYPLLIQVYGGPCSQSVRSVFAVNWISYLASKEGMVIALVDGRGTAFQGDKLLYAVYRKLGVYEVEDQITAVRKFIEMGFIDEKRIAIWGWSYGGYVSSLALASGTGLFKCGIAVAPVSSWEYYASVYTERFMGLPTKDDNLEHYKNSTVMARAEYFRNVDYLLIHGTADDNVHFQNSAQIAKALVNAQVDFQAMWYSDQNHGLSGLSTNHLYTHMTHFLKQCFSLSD
Procedure: Both the FAPI-ALB-AF647 and the unlabeled competitor were incubated at 60 nM each on HEK293-hFAP cells for 30 min on ice to approach steady-state binding. The competition assay cells were pelleted and washed twice with PBS w/ 0.1% BSA before being analyzed using a BD Fortessa flow cytometer. The loss in signal from the competition incubation was then compared to the signal of the FAPI-ALB-AF647 incubation alone to determine the relative binding affinity.

[5] = Plasma protein binding by equilibrium dialysis; assay type: in vitro ADME; details: CD1 mouse plasma, 1 µM, equilibrium dialysis 4 h at 37 °C
Procedure: CD1 mouse plasma protein binding was assessed via equilibrium dialysis. Dry membranes (HT Dialysis, HTD96b) were soaked in DI water for 15 min and then in 30% ethanol for another 15 min. After washing the membranes 3 times with DI water, the membranes were placed in dialysis buffer (potassium phosphate, 50 mM, pH 7.4) until the assay began. At the beginning of the assay, the membranes were placed in the dialysis block and 100 µL of buffer was added to both sides of the membrane to maintain membrane hydration/integrity. Each compound was diluted to 1 µM using plasma and then 100 µL of this mixture was added to one side of the membrane while 100 µl of […] was placed in opposite well. The plate was then sealed and placed on an orbital shaker (150 rpm) in an incubator at 37 °C for 4 h. Afterwards, samples were taken from the donor and acceptor side of the well, vortexed, centrifuged at 3300 rpm for 15 min at 4 °C and then analyzed for compound content using LC/MS.

HEK293-hFAP cells = assay: Receptor net internalization assay, flow cytometry with Trypan Blue quench; assay type: cell-based, human; details: endogenous and overexpressing cells together
Procedure: The receptor internalization assay was adapted from a previously published method for peptides[61],[63]. Briefly, HEK293-hFAP cells were sub-cultured into 6-well plates and allowed to adhere for 12–16 h. After washing cells with media, 100 nM of FAPI-AF488 in media was added to each well. Cells were incubated at 37 °C in the continuous presence of FAPI-AF488 and allowed to internalize. At each time point, plates were chilled, wells washed twice with PBS with 0.1% BSA, and cells lifted following Accutase incubation. Lastly, cells were resuspended in PBS or a dilution of 0.4% Trypan Blue before being analyzed via flow cytometry to differentiate between internal and surface fluorescence. The surface fluorescence was determined as (unquenched MFU – quenched MFU)/ɛ, where ɛ is the quenching efficiency determined by comparing the quenched and unquenched signals of cells that had been labeled briefly on ice to prevent internalization. The internal fluorescence was then calculated as total MFU – surface MFU. Non-specific uptake of small molecules was measured using cells where FAPI-AF488 was competed out with 100-fold excess concentration of the unlabeled FAPI. The corrected internal MFU values were plotted against the surface fluorescence integral; the slope of the linear curve is the internalization rate ke[64]. The same procedure was followed for the endogenous RAFLS cells.

Row | Compound | EC50 (FAP [1]) [nM] | mean fluorescence intensity in healthy paws (FAP [2]; healthy mice, 5 h, 1 nmol IV, no block) | AUC(0-inf) [3] [µM·h] | C0 [3] [nM] | clearance [3] [mL/min] | half-life [3] [min] | Vd [3] [L] | clearance category (Fig. 1) [3] | Kd [4] [nM] | mean fluorescence intensity of FAPI-ALB-800CW in inflamed paws when blocked by this compound (FAP [2]; CIA mice, 24 h, 1 nmol IV probe, blocker co-administered at 50-fold molar excess) | % Protein Bound ± SD [5] | internalization half-life (t1/2) (HEK293-hFAP cells) [min] | effect of co-dosed molar excess blocker on FAPI-800CW uptake in inflamed paws (FAP [2]; CIA mice, 5 h, 50-fold molar excess)
1 | N#C[C@@H]1CC(F)(F)CN1C(=O)CNC(=O)c1ccnc2ccc(OCCCN3CCN(C(=O)CN4CCN(CC(=O)O)CCN(CC(=O)O)CCN(CC(=O)O)CC4)CC3)cc12 [FAPI-04] | 6.5 | – | – | – | – | – | – | – | – | – | – | – | –
2 | CC1(C)C(/C=C/C2=C(Oc3ccc(S(=O)(=O)O)cc3)C(=C/C=C3/N(CCCCS(=O)(=O)O)c4ccc(S(=O)(=O)O)cc4C3(C)C)/CCC2)=[N+](CCCCCC(=O)N2CCN(CCCOc3ccc4nccc(C(=O)NCC(=O)N5CC(F)(F)C[C@H]5C#N)c4c3)CC2)c2ccc(S(=O)(=O)O)cc21.O=C([O-])C(F)(F)F [FAPI-800CW] | – | 0.026 ± 0.007 | 0.525 ± 0.025 | 1250 ± 52 | 0.0638 | 60 ± 6 | 0.0039 ± 0.0002 | Moderate clearance | 8 | – | – | – | –
3 | N#CC1CC(F)(F)CN1C(=O)CNC(=O)c1ccnc2ccc(OCCCN3CCN(C(=O)C(N)CCC(=O)NCCOCCOCC(=O)NCc4ccc(S(=O)(=O)NC(=O)c5ccc(-c6ccc(C(F)(F)F)cc6)cc5)cc4)CC3)cc12 (stereo not shown) [FAPI-ALB] | – | – | 0.088 ± 0.018 | 189 ± 52 | 0.42 | 54 | 0.0145 ± 0.0084 | Moderate clearance | 3.6 | 0.07 ± 0.01 | 98.9 ± 0.2% | – | –
4 | N#C[C@@H]1CC(F)(F)CN1C(=O)CNC(=O)c1ccnc2ccc(OCCCN3CCNCC3)cc12 [FAPI] | – | – | 0.014 ± 0.004 | 50 ± 7 | 3.9 | 30 ± 6 | 0.0627 ± 0.0184 | Fast clearance | 6 | – | 44.7% and 44.7 ± 3.1% | 240 to 480 | did not provide a similar reduction
